Measured values as given in US20060252807A1, “Novel ortho-terphenyl inhibitors of p38 kinase and methods of treating inflammatory disorders” (Kalypsys, Inc., priority 2005, published 2006).

These molecules were tested against T1, active p38 alpha enzyme (Upstate Biotechnology) (Homo sapiens, UniProt Q16539) (assay: p38α biochemical assay (ATP turnover, luminescent detection, Cambrex PKlight)). Details: p38α kinase; Table 1 Biological Activity.
T1 construct: purchased Upstate Biotechnology
Method in brief: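 p38α + MapkapK2 (whole protein substrate) + 1.4 uM ATP final; Tris/MOPS buffer with MgCl2, CaCl2, EGTA, EDTA, glycerol, β-ME, BSA; 2 h at 30C; luminescent detection of remaining ATP.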

T1 sequence (Q16539 whole entry): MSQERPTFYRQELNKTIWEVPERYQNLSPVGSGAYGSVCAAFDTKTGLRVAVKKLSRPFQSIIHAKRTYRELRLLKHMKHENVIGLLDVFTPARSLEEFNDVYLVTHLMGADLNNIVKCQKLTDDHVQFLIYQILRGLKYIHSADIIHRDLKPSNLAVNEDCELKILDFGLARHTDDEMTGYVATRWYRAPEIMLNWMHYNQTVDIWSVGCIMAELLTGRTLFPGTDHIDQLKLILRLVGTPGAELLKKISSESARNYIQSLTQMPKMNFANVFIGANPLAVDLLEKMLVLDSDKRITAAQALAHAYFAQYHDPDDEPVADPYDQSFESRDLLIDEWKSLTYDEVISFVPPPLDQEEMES

| IC50 | Structure (SMILES) |
| --- | --- |
| > 1000 nM | CC(C)NC(=O)c1csc(-c2c(-c3ccc(F)cc3)noc2CN(C)C2CCCCC2)n1 [Example 1532] |
| > 1000 nM | CC(C)NC(=O)c1csc(-c2c(-c3ccc(F)cc3)noc2CN2C(C)CCCC2C)n1 (centres unmarked) [Example 1533] |
| > 1000 nM | CC(C)NC(=O)c1csc(-c2c(-c3ccc(F)cc3)noc2CN2CCC(N(C)C)C2)n1 (centres unmarked) [Example 1534] |
| > 1000 nM | CC(C)NC(=O)c1csc(-c2c(-c3ccc(F)cc3)noc2CN2C[C@@H](C)N[C@@H](C)C2)n1 [Example 1535] |
| > 1000 nM | CC(C)NC(=O)c1csc(-c2c(-c3ccc(F)cc3)noc2CN2CCCC(CO)C2)n1 (centres unmarked) [Example 1536] |
| > 1000 nM | COC[C@@H]1CCCN1Cc1onc(-c2ccc(F)cc2)c1-c1nc(C(=O)NC(C)C)cs1 [Example 1537] |
| > 1000 nM | CC(C)NC(=O)c1csc(-c2c(-c3ccc(F)cc3)noc2CN2CC(C)OC(C)C2)n1 (centres unmarked) [Example 1538] |
| > 1000 nM | CC(C)NC(=O)c1csc(-c2c(-c3ccc(F)cc3)noc2CN2CCCCC2CO)n1 (centres unmarked) [Example 1539] |
| > 1000 nM | CCN(CCCCO)Cc1onc(-c2ccc(F)cc2)c1-c1nc(C(=O)NC(C)C)cs1 [Example 1540] |
| > 1000 nM | CC(C)NC(=O)c1csc(-c2c(-c3ccc(F)cc3)noc2CN2Cc3ccccc3C2)n1 [Example 1541] |
| > 1000 nM | CC(C)NC(=O)c1csc(-c2c(-c3ccc(F)cc3)noc2CN(C)Cc2ccccc2)n1 [Example 1542] |
| > 1000 nM | CCN(Cc1onc(-c2ccc(F)cc2)c1-c1nc(C(=O)NC(C)C)cs1)C1CCCCC1 [Example 1543] |
| > 1000 nM | CC(C)NC(=O)c1csc(-c2c(-c3ccc(F)cc3)noc2CN2CCC(C(N)=O)CC2)n1 [Example 1544] |
| > 1000 nM | CC(=O)N[C@H]1CCN(Cc2onc(-c3ccc(F)cc3)c2-c2nc(C(=O)NC(C)C)cs2)C1 [Example 1545] |
| > 1000 nM | CC(C)NC(=O)c1csc(-c2c(-c3ccc(F)cc3)noc2CN2CCCC(C(N)=O)C2)n1 (centres unmarked) [Example 1547] |
| > 1000 nM | CC(C)NC(=O)c1csc(-c2c(-c3ccc(F)cc3)noc2CN2CCCCC2CCO)n1 (centres unmarked) [Example 1548] |
| > 1000 nM | CC(C)NC(=O)c1csc(-c2c(-c3ccc(F)cc3)noc2CN2CCc3ccccc3C2)n1 [Example 1549] |
| > 1000 nM | CCN(Cc1ccccc1)Cc1onc(-c2ccc(F)cc2)c1-c1nc(C(=O)NC(C)C)cs1 [Example 1550] |
| > 1000 nM | CC(C)NC(=O)c1csc(-c2c(-c3ccc(F)cc3)noc2CN(C)CCc2ccccc2)n1 [Example 1552] |
| > 1000 nM | CC(C)NC(=O)c1csc(-c2c(-c3ccc(F)cc3)noc2CN(C)CCc2ccccn2)n1 [Example 1553] |
| ≤ 1000 nM | CC(C)NC(=O)c1csc(-c2c(-c3ccc(F)cc3)noc2CN(C)CCc2ccccn2)n1 [Example 1554] |
| > 1000 nM | CC(C)NC(=O)c1csc(-c2c(-c3ccc(F)cc3)noc2CN2CCCC3CCCCC32)n1 (centres unmarked) [Example 1555] |
| > 1000 nM | C=CCN(Cc1onc(-c2ccc(F)cc2)c1-c1nc(C(=O)NC(C)C)cs1)C1CCCCC1 [Example 1556] |
| > 1000 nM | COC(=O)C1CCN(Cc2onc(-c3ccc(F)cc3)c2-c2nc(C(=O)NC(C)C)cs2)CC1 [Example 1557] |

| IC50 | Structure (SMILES) |
| --- | --- |
| > 1000 nM | CC(C)NC(=O)c1csc(-c2c(-c3ccc(F)cc3)noc2CN(Cc2ccccc2)C(C)C)n1 [Example 1558] |
| > 1000 nM | CC(C)NC(=O)c1csc(-c2c(-c3ccc(F)cc3)noc2CN(CCO)Cc2ccccc2)n1 [Example 1559] |
| > 1000 nM | CC(C)NC(=O)c1csc(-c2c(-c3ccc(F)cc3)noc2CN(C)CC(O)c2ccccc2)n1 (centres unmarked) [Example 1560] |
| > 1000 nM | CC(C)NC(=O)c1csc(-c2c(-c3ccc(F)cc3)noc2CN2CCC(O)(O)CC2)n1 [Example 1561] |
| > 1000 nM | CCOC(=O)C1CCN(Cc2onc(-c3ccc(F)cc3)c2-c2nc(C(=O)NC(C)C)cs2)CC1 [Example 1562] |
| > 1000 nM | CCOC(=O)C1CCCN(Cc2onc(-c3ccc(F)cc3)c2-c2nc(C(=O)NC(C)C)cs2)C1 (centres unmarked) [Example 1563] |
| > 1000 nM | CCOC(=O)N1CCN(Cc2onc(-c3ccc(F)cc3)c2-c2nc(C(=O)NC(C)C)cs2)CC1 [Example 1564] |
| > 1000 nM | CC(C)NC(=O)c1csc(-c2c(-c3ccc(F)cc3)noc2CN(CCC#N)Cc2cccnc2)n1 [Example 1566] |
| > 1000 nM | CC(C)NC(=O)c1csc(-c2c(-c3ccc(F)cc3)noc2CN2CCN(c3ccccc3)CC2)n1 [Example 1567] |
| > 1000 nM | CC(C)NC(=O)c1csc(-c2c(-c3ccc(F)cc3)noc2CN2CCN(c3ccccn3)CC2)n1 [Example 1568] |
| > 1000 nM | CCCCN(Cc1ccccc1)Cc1onc(-c2ccc(F)cc2)c1-c1nc(C(=O)NC(C)C)cs1 [Example 1569] |
| > 1000 nM | CC(C)NC(=O)c1csc(-c2c(-c3ccc(F)cc3)noc2CN(CCO)[C@H](C)c2ccccc2)n1 [Example 1570] |
| > 1000 nM | CC(C)NC(=O)c1csc(-c2c(-c3ccc(F)cc3)noc2CN(CCCO)Cc2ccccn2)n1 [Example 1571] |
| > 1000 nM | CC(C)NC(=O)c1csc(-c2c(-c3ccc(F)cc3)noc2CN(C)CC(O)c2ccc(O)cc2)n1 (centres unmarked) [Example 1572] |
| > 1000 nM | CC(C)NC(=O)c1csc(-c2c(-c3ccc(F)cc3)noc2CN2CCN(C3CCCCC3)CC2)n1 [Example 1573] |
| > 1000 nM | CC(C)NC(=O)c1csc(-c2c(-c3ccc(F)cc3)noc2CN2CCC(Cc3ccccc3)CC2)n1 [Example 1574] |
| > 1000 nM | CC(C)NC(=O)c1csc(-c2c(-c3ccc(F)cc3)noc2CN2CCN(Cc3ccccc3)CC2)n1 [Example 1575] |
| > 1000 nM | CC(C)NC(=O)c1csc(-c2c(-c3ccc(F)cc3)noc2CN2CCCN(Cc3ccccc3)CC2)n1 [Example 1576] |
| > 1000 nM | CC(C)NC(=O)c1csc(-c2c(-c3ccc(F)cc3)noc2CN2CCN(c3ccc(O)cc3)CC2)n1 [Example 1577] |
| > 1000 nM | CC(C)NC(=O)c1csc(-c2c(-c3ccc(F)cc3)noc2CN(CCN(C)C)Cc2ccccc2)n1 [Example 1578] |
| > 1000 nM | CC(C)NC(=O)c1csc(-c2c(-c3ccc(F)cc3)noc2CN2CCN(c3ccccc3F)CC2)n1 [Example 1579] |
| > 1000 nM | CC(C)NC(=O)C1=CSC(c2c(-c3ccc(F)cc3)noc2CN2CCN(c3ccc(F)cc3)CC2)=NC1 [Example 1580] |
| > 1000 nM | CC(C)NC(=O)c1csc(-c2c(-c3ccc(F)cc3)noc2CN2CCN(CC3CCCCC3)CC2)n1 [Example 1581] |
| > 1000 nM | CC(C)NC(=O)c1csc(-c2c(-c3ccc(F)cc3)noc2CN(C)C[C@H](O)c2ccc(O)c(O)c2)n1 [Example 1582] |

| IC50 | Structure (SMILES) |
| --- | --- |
| > 1000 nM | CCOC(=O)CC1C(=O)NCCN1Cc1onc(-c2ccc(F)cc2)c1-c1nc(C(=O)NC(C)C)cs1 (centres unmarked) [Example 1583] |
| > 1000 nM | CC(C)NC(=O)c1csc(-c2c(-c3ccc(F)cc3)noc2CN2CCN(C(=O)OC(C)(C)C)CC2)n1 [Example 1584] |
| > 1000 nM | CC(C)NC(=O)c1csc(-c2c(-c3ccc(F)cc3)noc2CN2CCC(NC(=O)OC(C)(C)C)C2)n1 (centres unmarked) [Example 1585] |
| > 1000 nM | CC(C)NC(=O)c1csc(-c2c(-c3ccc(F)cc3)noc2CN2CCN(c3ccccc3C#N)CC2)n1 [Example 1586] |
| > 1000 nM | CC(C)NC(=O)c1csc(-c2c(-c3ccc(F)cc3)noc2CN2CCN(c3ccc(C#N)cn3)CC2)n1 [Example 1587] |
| > 1000 nM | Cc1cccc(N2CCN(Cc3onc(-c4ccc(F)cc4)c3-c3nc(C(=O)NC(C)C)cs3)CC2)c1C [Example 1588] |
| > 1000 nM | Cc1cccc(N2CCN(Cc3onc(-c4ccc(F)cc4)c3-c3nc(C(=O)NC(C)C)cs3)CC2C)c1 (centres unmarked) [Example 1590] |
| > 1000 nM | CC(C)NC(=O)c1csc(-c2c(-c3ccc(F)cc3)noc2CN2CCN(CCc3ccccc3)CC2)n1 [Example 1591] |
| > 1000 nM | Cc1ccc(N2CCN(Cc3onc(-c4ccc(F)cc4)c3-c3nc(C(=O)NC(C)C)cs3)CC2)cc1C [Example 1592] |
| > 1000 nM | Cc1ccc(N2CCN(Cc3onc(-c4ccc(F)cc4)c3-c3nc(C(=O)NC(C)C)cs3)CC2)c(C)c1 [Example 1593] |
| > 1000 nM | Cc1ccc(C)c(N2CCN(Cc3onc(-c4ccc(F)cc4)c3-c3nc(C(=O)NC(C)C)cs3)CC2)c1 [Example 1594] |
| > 1000 nM | COc1ccc(N2CCN(Cc3onc(-c4ccc(F)cc4)c3-c3nc(C(=O)NC(C)C)cs3)CC2)cc1 [Example 1595] |
| > 1000 nM | COc1ccccc1N1CCN(Cc2onc(-c3ccc(F)cc3)c2-c2nc(C(=O)NC(C)C)cs2)CC1 [Example 1596] |
| > 1000 nM | COc1cccc(N2CCN(Cc3onc(-c4ccc(F)cc4)c3-c3nc(C(=O)NC(C)C)cs3)CC2)c1 [Example 1597] |
| > 1000 nM | COc1ccc(CCN(C)Cc2onc(-c3ccc(F)cc3)c2-c2nc(C(=O)NC(C)C)cs2)cc1OC [Example 1598] |
| > 1000 nM | CC(C)NC(=O)c1csc(-c2c(-c3ccc(F)cc3)noc2CN2CCN(c3cccc(Cl)c3)CC2)n1 [Example 1599] |
| > 1000 nM | CC(C)NC(=O)c1csc(-c2c(-c3ccc(F)cc3)noc2CN2CCN(c3ccc(Cl)cc3)CC2)n1 [Example 1600] |
| > 1000 nM | CC(C)NC(=O)c1csc(-c2c(-c3ccc(F)cc3)noc2CN2CCN(c3ccc(F)cc3F)CC2)n1 [Example 1602] |
| > 1000 nM | CC(C)NC(=O)c1csc(-c2c(-c3ccc(F)cc3)noc2CN(Cc2cccnc2)Cc2cccnc2)n1 [Example 1603] |
| > 1000 nM | CC(C)NC(=O)c1csc(-c2c(-c3ccc(F)cc3)noc2CN2CCN(CCN3CCOCC3)CC2)n1 [Example 1604] |
| > 1000 nM | CC(C)NC(=O)c1csc(-c2c(-c3ccc(F)cc3)noc2CN2CCC(N(C)C(=O)OC(C)(C)C)C2)n1 (centres unmarked) [Example 1605] |
| > 1000 nM | CC(=O)c1ccc(N2CCN(Cc3onc(-c4ccc(F)cc4)c3-c3nc(C(=O)NC(C)C)cs3)CC2)cc1 [Example 1606] |
| > 1000 nM | CCN(CC)CCN(Cc1ccccc1)Cc1onc(-c2ccc(F)cc2)c1-c1nc(C(=O)NC(C)C)cs1 [Example 1607] |
